PMC8155809 (The Journal of General Physiology, 2021)
Each block holds one compound with its values, some of them ahead of it.

Columns and labels:
human TREK-2 = target: T1, human TREK-2 (Homo sapiens, UniProt P57789); assay: Macroscopic TREK-2 currents in giant excised patches from Xenopus oocytes; assay type: cell-based
T1 construct: expressed in transfected cells; host or cells: Xenopus laevis oocytes injected with in vitro transcribed mRNA (pFAW vector)
T1 sequence (P57789 1-543 isoform P57789-4): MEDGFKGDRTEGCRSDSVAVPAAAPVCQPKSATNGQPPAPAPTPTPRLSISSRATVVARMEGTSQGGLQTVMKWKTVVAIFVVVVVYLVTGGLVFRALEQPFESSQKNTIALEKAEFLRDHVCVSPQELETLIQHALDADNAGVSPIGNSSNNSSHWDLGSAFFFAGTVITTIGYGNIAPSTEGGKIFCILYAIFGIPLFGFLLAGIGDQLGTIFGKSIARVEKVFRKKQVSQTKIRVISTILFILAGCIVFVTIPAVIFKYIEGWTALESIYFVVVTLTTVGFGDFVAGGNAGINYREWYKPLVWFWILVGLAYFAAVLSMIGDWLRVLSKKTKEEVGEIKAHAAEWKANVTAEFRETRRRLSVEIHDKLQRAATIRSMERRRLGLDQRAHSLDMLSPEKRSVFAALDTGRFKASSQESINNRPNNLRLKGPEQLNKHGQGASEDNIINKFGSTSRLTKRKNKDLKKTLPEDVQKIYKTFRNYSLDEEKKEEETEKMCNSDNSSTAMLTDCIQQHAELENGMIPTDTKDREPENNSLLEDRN
Procedure: (§1) Full-length human TREK-2 isoform 3 (NCBI accession no. NP_612191) was used throughout this study and was subcloned into the pFAW vector for expression in oocytes. The truncated construct used to generate protein (TREK-2ΔN/ΔC) is identical to that used previously to obtain crystal structures ([Dong et al., 2015]); it contains a deletion of 71 residues at the N terminus and 213 residues at the C terminus. […] Desamino chloro-fluoxetine (Toronto Research Chemicals) was dissolved in chloroform and diluted to working concentrations on the day of experimenting (maximum final concentration was 0.01%).
Oocytes were prepared for injection of mRNA by collagenase digestion followed by manual defolliculation and stored in ND96 solution that contained (in mM) 96 NaCl, 2 KCl, 1.8 CaCl2, 1 MgCl2, and 10 HEPES (pH 7.4) and was supplemented with 2.5 mM sodium pyruvate 50 µg/ml gentamycin, 50 µg/ml tetracycline, 50 µg/ml ciprofloxacin, and 100 µg/ml amikacin. Cells were injected with 1–4 ng mRNA up to 4 d after isolation. In vitro transcription of mRNA was done using the Amplicap SP6 Kit (Cambio). Experiments were performed 12–24 h after injection at room temperature (22°C unless otherwise indicated). For measurement and comparison of basal whole-cell currents, oocytes were injected with 4 ng RNA and recorded exactly 24 h after injection.
(§2) For currents recorded in Xenopus laevis oocytes, giant-patch electrodes were pulled from thick-walled borosilicate glass and polished to give pipette resistances of ∼0.3–0.5 MΩ when filled with patch solution. Pipette solution contained (in mM) 116 NMDG, 4 KCl, 1 MgCl2, 3.6 CaCl2, and 10 HEPES (pH 7.4), while the bath solution contained (in mM) 120 KCl, 1 NaCl, 2 EGTA, and 10 HEPES (pH 7.3). Patches were perfused via a gravity-flow perfusion system and a HEKA EPC 10 USB single computer–controlled amplifier was used and currents recorded using a Patchmaster v2 × 90.5 (HEKA Electronics), filtered at 1 kHz, and sampled at 10 kHz. For currents recorded in HEK293 cells, patch electrodes were pulled from thick-walled borosilicate glass and polished to give pipette resistances of ∼3–5 MΩ when filled with patch solution. The currents were recorded from excised patches with both intracellular and extracellular solution containing 200 mM KCl and 10 mM HEPES (pH 6.0 with KOH). Patches were perfused via a gravity-flow perfusion system. Data were acquired with pClamp and recorded using an Axopatch 200B (Molecular Devices), filtered at 5 kHz, and sampled at 200 kHz. Single-channel currents were analyzed in an identical manner to those obtained from bilayers (see above).
The macroscopic concentration–inhibition relationships in Figs. 1 and 2 were fitted with a modified Hill equation:
I/I0=a+1−a/1+([X]/IC50)^h, (1) where I and IO are the currents in the presence and absence of inhibitor, respectively, [X] is the concentration of inhibitor, IC50 is the inhibitor concentration at which the inhibition is half maximal, h is the Hill coefficient, and a is the fraction of unblockable current; a = 0, except where indicated in the legend to Fig. 1.
The macroscopic concentration–activation relationships in Fig. 1 E were fitted with a modified Hill equation: I/I0=a+(1−a)([X]/IC50)^h/1+([X]/IC50)^h, (2) where I and IO are the currents in the presence and absence of agonist, respectively, [X] is the concentration of agonist, IC50 is the agonist concentration at which the activation is half maximal, h is the Hill coefficient, and a is the fraction of initial current.

WT TREK-2 = target: T2, WT TREK-2 (Homo sapiens, UniProt P57789); assay: Single-channel recordings of WT TREK-2 in excised patches from HEK293 cells; assay type: cell-based
T2 construct: full-length WT TREK-2 channels, we examined its effects on the mean open time of TREK-2 channels expressed in HEK293 cells; expressed in transfected cells; host or cells: HEK293 cells, transient transfection with pcDNA3
T2 sequence (P57789 1-543 isoform P57789-4): T1 sequence (P57789 1-543 isoform P57789-4)
Procedure: as §1
HEK293 cells were cultured in DMEM (Sigma) containing 10% FBS (Life Technologies), 3 mM glucose, and 2 mM glutamine at 37°C in a humidified atmosphere of 5% CO2/[…] at 37°C. Cells were transiently transfected with 0.2 µg channel pcDNA3 per dish using FuGENE 6 according to the manufacturer’s instructions. Cells were used 1–2 d after transfection.
as §2

h (Hill coefficient), BL1249 activation (human TREK-2; BL1249 on its own): 1.9 | h (Hill coefficient), BL1249 activation (human TREK-2; in the presence of NFx): 1.4
SMILES: c1ccc(-c2nn[nH]n2)c(Nc2cccc3c2CCCC3)c1 [BL1249]

mean Po (WT TREK-2; 100 µM ML335, absence of NFx, −40 mV): 0.69 ± 0.2
SMILES: CS(=O)(=O)Nc1ccc(C(=O)NCc2ccc(Cl)cc2Cl)cc1 [ML335]

PO (single-channel open probability) (WT TREK-2; 10 µM, −40 mV): 0.04 | reduction in γ (single-channel current amplitude) (WT TREK-2; 10 µM, −40 mV (Fig. 6B)): 15 ± 5% | reduction of channel Po (WT TREK-2; 10 µM, −40 mV (Fig. 6B)): 75 ± 0.05%
SMILES: FC(F)(F)c1ccc(O[C@@H](CCCl)c2ccccc2)cc1 [desamino chloro-fluoxetine, Desamino chloro-fluoxetine]
